Reference: PubChem BioAssay AID2060625 (Molecular Pharmacology Branch, DTP, NCI, 2025)

Test system: 186277-243-T-J2-PDC spheroids with HUVEC/MSC, viability
Assay: Anticancer human tumor 186277-243-T-J2-PDC patient-derived colon adenocarcinoma cell line growth inhibition [CLK]
Details: for IC50: curve of first compound; for viability, T/C: stronger effect = lower value
Outline: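 Patient-derived tumor cells grown as complex spheroids with HUVEC endothelial cells and mesenchymal stem cells, treated with drug combinations. Concentrations descend in half-log steps from near clinical Cmax, or from 10 microM if Cmax unknown.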

[1] = second compound 0.0316 µM, first compound 0.0316 µM
[2] = second compound 0.0316 µM, first compound 0.1 µM
[3] = second compound 0.0316 µM, first compound 0.316 µM
[4] = second compound 0.0316 µM, first compound 1 µM
[5] = second compound 0.0316 µM, first compound 3.16 µM
[6] = second compound 0.0316 µM, first compound 10 µM
[7] = second compound 0.1 µM, first compound 0.0316 µM
[8] = second compound 0.1 µM, first compound 0.1 µM
[9] = second compound 0.1 µM, first compound 0.316 µM
[10] = second compound 0.1 µM, first compound 1 µM
[11] = second compound 0.1 µM, first compound 3.16 µM
[12] = second compound 0.1 µM, first compound 10 µM
[13] = second compound 0.316 µM, first compound 0.0316 µM
[14] = second compound 0.316 µM, first compound 0.1 µM
[15] = second compound 0.316 µM, first compound 0.316 µM
[16] = second compound 0.316 µM, first compound 1 µM
[17] = second compound 0.316 µM, first compound 3.16 µM
[18] = second compound 0.316 µM, first compound 10 µM
[19] = second compound 1 µM, first compound 0.0316 µM
[20] = second compound 1 µM, first compound 0.1 µM
[21] = second compound 1 µM, first compound 0.316 µM
[22] = second compound 1 µM, first compound 1 µM
[23] = second compound 1 µM, first compound 3.16 µM
[24] = second compound 1 µM, first compound 10 µM
[25] = second compound 3.16 µM, first compound 0.0316 µM
[26] = second compound 3.16 µM, first compound 0.1 µM
[27] = second compound 3.16 µM, first compound 0.316 µM
[28] = second compound 3.16 µM, first compound 1 µM
[29] = second compound 3.16 µM, first compound 3.16 µM
[30] = second compound 3.16 µM, first compound 10 µM
[31] = second compound 10 µM, first compound 0.0316 µM
[32] = second compound 10 µM, first compound 0.1 µM
[33] = second compound 10 µM, first compound 0.316 µM
[34] = second compound 10 µM, first compound 1 µM
[35] = second compound 10 µM, first compound 3.16 µM
[36] = second compound 10 µM, first compound 10 µM
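Further: compound exposure lasted seven days before readout.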
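Wherever viability, T/C is given: 100% = DMSO vehicle control wells.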

C=C(F)C(=O)N1CCN(c2nc(OCC3CCCN3C)nc3c2CCN(c2cccc4cccc(Cl)c24)C3)CC1CC#N (stereo unspecified) + CNC(=O)c1ccc(Nc2nc(OC3CCCC3)c3c(-c4ccc5nc(C)oc5c4)c[nH]c3n2)c(OC)c1 was tested, and the IC50 (second compound 0.0316 µM) was 5730 nM, the IC50 (second compound 0.1 µM) was 4220 nM and the IC50 (second compound 0.316 µM) was < 31.6 nM. The IC50 (second compound 1 µM) was < 31.6 nM, the IC50 (second compound 3.16 µM) was < 31.6 nM and the IC50 (second compound 10 µM) was < 31.6 nM. The viability, T/C [1] was 98%, the viability, T/C [2] was 96.1% and the viability, T/C [3] was 99.2%. The viability, T/C [4] was 93.8%, the viability, T/C [5] was 114% and the viability, T/C [6] was 3.01%. It also gave a viability, T/C [7] of 68.4%, a viability, T/C [8] of 70.6% and a viability, T/C [9] of 69.8%. It also gave a viability, T/C [10] of 61.2%, a viability, T/C [11] of 65.9% and a viability, T/C [12] of 2.67%. The viability, T/C [13] was 45.1%, the viability, T/C [14] was 48.2% and the viability, T/C [15] was 42.7%. The viability, T/C [16] was 46%, the viability, T/C [17] was 48.1% and the viability, T/C [18] was 0.4%. For the same compound, the viability, T/C [19] was 36%, the viability, T/C [20] was 39.8% and the viability, T/C [21] was 34.5%. For the same compound, the viability, T/C [22] was 35.9%, the viability, T/C [23] was 36.7% and the viability, T/C [24] was 1.8%. It also gave a viability, T/C [25] of 37.3%, a viability, T/C [26] of 35.2% and a viability, T/C [27] of 32.3%. It also gave a viability, T/C [28] of 36.7%, a viability, T/C [29] of 34.1% and a viability, T/C [30] of 0.54%. The viability, T/C [31] was 37.3%, the viability, T/C [32] was 35.4% and the viability, T/C [33] was 37.9%. It also gave a viability, T/C [34] of 38%, a viability, T/C [35] of 27.1% and a viability, T/C [36] of 0.4%.
In the case of C=CC(=O)N1CCN(c2nc(=O)n(-c3c(C)ccnc3C(C)C)c3nc(-c4c(O)cccc4F)c(F)cc23)C(C)C1 (stereo unspecified) + CNC(=O)c1ccc(Nc2nc(OC3CCCC3)c3c(-c4ccc5nc(C)oc5c4)c[nH]c3n2)c(OC)c1, the IC50 (second compound 0.0316 µM) is reported as > 10000 nM, the IC50 (second compound 0.1 µM) is reported as > 10000 nM and the IC50 (second compound 0.316 µM) is reported as 2160 nM. The IC50 (second compound 1 µM) was < 31.6 nM, the IC50 (second compound 3.16 µM) was < 31.6 nM and the IC50 (second compound 10 µM) was < 31.6 nM. It also gave a viability, T/C [1] of 91.3%, a viability, T/C [2] of 89.6% and a viability, T/C [3] of 100%. For the same compound, the viability, T/C [4] was 86.2%, the viability, T/C [5] was 114% and the viability, T/C [6] was 110%. The viability, T/C [7] was 77.3%, the viability, T/C [8] was 79.4% and the viability, T/C [9] was 77.7%. For the same compound, the viability, T/C [10] was 77.8%, the viability, T/C [11] was 72% and the viability, T/C [12] was 58.2%. The viability, T/C [13] was 55.5%, the viability, T/C [14] was 51.2% and the viability, T/C [15] was 48%. For the same compound, the viability, T/C [16] was 57%, the viability, T/C [17] was 47.4% and the viability, T/C [18] was 38.5%. The viability, T/C [19] was 39.4%, the viability, T/C [20] was 39.4% and the viability, T/C [21] was 39.3%. It also gave a viability, T/C [22] of 34.7%, a viability, T/C [23] of 38.3% and a viability, T/C [24] of 28%. The viability, T/C [25] was 38.4%, the viability, T/C [26] was 38.2% and the viability, T/C [27] was 34.9%. It also gave a viability, T/C [28] of 34.3%, a viability, T/C [29] of 34.9% and a viability, T/C [30] of 23.8%. For the same compound, the viability, T/C [31] was 35.4%, the viability, T/C [32] was 33.5% and the viability, T/C [33] was 36.3%. For the same compound, the viability, T/C [34] was 37.8%, the viability, T/C [35] was 37.1% and the viability, T/C [36] was 24.4%.
For COC1C=CCC(C)C(C)S(=O)(=O)NC(=O)c2ccc3c(c2)N(CC2CCC21)CC1(CCCc2cc(Cl)ccc21)CO3 (stereo unspecified) + CNC(=O)c1ccc(Nc2nc(OC3CCCC3)c3c(-c4ccc5nc(C)oc5c4)c[nH]c3n2)c(OC)c1, the IC50 (second compound 0.0316 µM) was 3550 nM, the IC50 (second compound 0.1 µM) was 90.1 nM and the IC50 (second compound 0.316 µM) was < 31.6 nM. For the same compound, the IC50 (second compound 1 µM) was < 31.6 nM, the IC50 (second compound 3.16 µM) was < 31.6 nM and the IC50 (second compound 10 µM) was < 31.6 nM. For the same compound, the viability, T/C [1] was 101%, the viability, T/C [2] was 101% and the viability, T/C [3] was 103%. It also gave a viability, T/C [4] of 83%, a viability, T/C [5] of 55.9% and a viability, T/C [6] of 4.26%. The viability, T/C [7] was 64%, the viability, T/C [8] was 50.2% and the viability, T/C [9] was 29.8%. It also gave a viability, T/C [10] of 19.8%, a viability, T/C [11] of 9.64% and a viability, T/C [12] of 3.08%. It also gave a viability, T/C [13] of 39.9%, a viability, T/C [14] of 32% and a viability, T/C [15] of 19.9%. The viability, T/C [16] was 12.5%, the viability, T/C [17] was 6.42% and the viability, T/C [18] was 2.78%. For the same compound, the viability, T/C [19] was 30.1%, the viability, T/C [20] was 23.2% and the viability, T/C [21] was 14.7%. The viability, T/C [22] was 10.7%, the viability, T/C [23] was 5.35% and the viability, T/C [24] was 4.55%. For the same compound, the viability, T/C [25] was 31.5%, the viability, T/C [26] was 27% and the viability, T/C [27] was 17.6%. For the same compound, the viability, T/C [28] was 10.1%, the viability, T/C [29] was 6.79% and the viability, T/C [30] was 2.91%. It also gave a viability, T/C [31] of 36.1%, a viability, T/C [32] of 25.4% and a viability, T/C [33] of 20.5%. The viability, T/C [34] was 11.9%, the viability, T/C [35] was 5.93% and the viability, T/C [36] was 2.8%.
